Read-outs that look alike come from different tables or passages of the source. Where no end group is shown, it is not given here.
How the values were obtained:
U937 leukemia cells = test: Cytotoxicity in U937 leukemia cell cultures, liposome-mediated peptide transfer, flow cytometry with propidium iodide and annexin V; format: cell-based
Excerpt: Peptide fragments derived from the protein Proliferating Cell Nuclear Antigen (PCNA) are identified herein that have the ability to act, in conjunction with DNA damaging agents (e.g., doxorubicin), to enhance the therapeutic effects of such agents to treat a variety of cancer cells. The peptides are derived from the amino acid sequence within PCNA, for example, encompassing amino acids 126-133. This sequence appears to be uniquely exposed in cancer cells, but not non-cancer cells. By preventing PCNA-binding proteins, including XPG, from binding directly to caPCNA in cancer cells the effects of chemotherapeutic drugs including DNA damaging agents are enhanced. […] Exponentially growing U937 leukemia cell cultures in tissue culture media were used. A liposome mediated protein transfer technique was used wherein the caPCNA peptide (126-133) and doxorubicin were encapsulated in liposomes and added to the cell cultures at 10 μM. […] This approach produced over a 50% killing of the cultured cells within 24 hours that was peptide/drug specific, and not due to liposome mediated cytotoxicity.
As a positive control, these leukemia cells were also incubated for several hours (either 4 or 24 hours) with a peptide derived from the p21waf protein, and as a negative control, a peptide derived from the yeast myosin protein. […] Cell killing vs. cell damage was assessed by flow cytometry using propidium iodide and annexin V staining.

breast cancer cells = test: Flow-cytometric analysis of breast cancer cells treated with peptide-containing liposomes (propidium iodide / annexin V); format: cell-based
Method: Exponentially growing breast cancer cells were grown in culture media to 50% of confluence (FIG. 1). The media was then changed and liposomes that were prepared from transfection reagent (PJR) were incubated with the cells in fresh media for an additional 24 hours prior to performing flow-cytometric analysis of the treated cells.
Liposomes contained either the carboxyl region of the p21waf1 protein, and/or the caPCNA antigenic site peptide (LGIPEQEY) (SEQ ID NO: 1). After 24 hours, the cells were stained with propidium iodide and fluorescently labeled annexin V antibody. Healthy growing cells were not permeable to the antibody as shown in lower left panel of FIG. 1, while permeabilized healthy cells susceptible to the transfection reagent, but still growing, were stained with propidium iodide. Cells staining with the annexin V antibody indicate some level of damage associated with the induction of apoptotic cells (lower right quadrant, FIG. 1), and/or cells that had died from either apoptosis or necrosis (upper right quadrant, FIG. 1). […] Cells treated with only the transfection reagent slightly affected the condition of the cells and lead to a slight increase in the number of apoptotic and necrotic cells. […] In addition, approximately 5-7% of the remaining cells appeared to be undergoing apoptosis and was slated to die.

cancer cells = test: Incubation of RYIRS-tagged caPCNA-derived peptide with cancer cells in vitro (DMSO or liposome uptake); format: cell-based; conditions: with doxorubicin
Method: The peptides disclosed herein are synthesized using standard peptide synthesis procedures and equipments or can be obtained commercially (e.g., United Biochemical Research Co., Seattle, Wash.). […] Uptake of this peptide was initiated by incubation of this peptide with the cancer cells in the presence of dimethyl sulfoxide (DMSO) in either phosphate buffered saline (PBS) or culture media containing 0.2-2% DMSO, without serum for about 4-24 hours. Uptake of this peptide was also efficiently mediated by encapsulation of the peptide in a liposome formulation and subsequent incubation with the cancer cells at 37° C. for about 4-24 hours.

[1] = system: caPCNA binding to caPCNA antibody (caPCNAab); test: Competition ELISA: caPCNA captured by plate-bound caPCNA antibody (caPCNAab), detected with C20 antibody; parameters: species or system human; conditions: increasing amounts of peptide incubated simultaneously with purified caPCNA
Method: The wells are washed and then incubated with a goat anti-PCNA antibody (C20) that recognizes the C-terminal 20 amino acids of PCNA. Bound C20 antibody is visualized with an alkaline phosphatase conjugated anti-goat IgG antibody, and bound antibody complex is visualized with […], and quantified by spectrophotometry. The competition experiments shown in this study involve the simultaneous incubation of the ca(cs)PCNA with increasing amounts of the antigenic peptide fragment of caPCNA (referred to as B1 or the PCNA aa126-133 peptide) in this assay.
The assay described in FIG. 5 was used to test the specificity of the antibody combining site for the epitope defined by PCNA aa126-133 (FIG. 6). The ELISA assay was performed as described in aim 1, however, either the B1 peptide or a peptide sequence (H-Ser-Ala-Cys-Glu-Gln-IIe-Leu-Lys-Asp-Thr-OH) (SEQ ID NO: 28) taken from within the yeast myosin protein was used to compete for the antibody in the presence of purified caPCNA.
The ELISA described herein was used to monitor the ability of two peptides to disrupt caPCNA binding to the bound caPCNA antibody. One peptide (H-[…]OH) (SEQ ID NO: 29) corresponding to the p21cip/waf1 proteins site of interaction with PCNA was evaluated in this assay, and is shown to have no effect on the binding of caPCNA to the bound caPCNA antibody in this ELISA assay (FIG. 7). […] Therefore, the XPG peptide interacts with its recognized PCNA binding site in order to block binding of the PCNA protein to the caPCNA antibody. This happens if the epitope recognized by the antibody was masked by specifically binding this XPG peptide.

caPCNA = molecular target: T1, caPCNA (Homo sapiens, UniProt P12004); test: XPG-GST fusion protein immunoprecipitation of PCNA isoforms from MCF7 cell extract, 2D-PAGE Western blot; format: binding; conditions: 30 μg MCF7 cell extract, 2 h incubation, glutathione agarose beads
T1 construct: precipitate caPCNA selectively from the MCF7 breast cancer cell extract; endogenous in cells; host or cells: MCF7 cell extract (XPG-GST partner expressed in bacteria)
Excerpt: MCF7 cell (human breast adenocarcinoma cell line) extracts were processed for purification of the synthesome. MCF7 derived synthesome was then subjected to chromatography steps on phosphocellulose, phenyl Sepharose, and Q-Sepharose matrices as described in (Malkas, L. and Hickey, R. (1996) The expression, purification and characterization of DNA polymerases involved in papovavirus replication. In: Methods in Enzymol Vol. 275: Viral Polymerases and Related Proteins, Acad. Press (133-167).). The Q-Sepharose eluted fraction containing both the nmPCNA and caPCNA isoforms was then loaded onto a XPG-GST affinity column. The column was eluted and both the column flow-through and eluate were subjected to 2D-PAGE Western blot analysis using PC10 antibody. The PC10 antibody was used at a dilution of 1:1000 in the Western blot analysis.
caPCNA was specifically immunoprecipitated from a MCF7 cell extract using XPG-GST fusion protein (FIG. 3). Thirty microgram samples of MCF7 cell extract were incubated with XPG-GST fusion protein for two hours, followed by incubation with Glutathione agarose beads for one hour to capture the XPG-GST. The mixture was then centrifuged to collect the beads, and the supernatant and the agarose bead pellet containing the XPG-GST PCNA complex were subjected to 2D-PAGE Western blot analysis. The Western blots were then probed using commercially available PC10 antibody.

T1 sequence (P12004 whole entry, the tested form may be a part, canonical isoform): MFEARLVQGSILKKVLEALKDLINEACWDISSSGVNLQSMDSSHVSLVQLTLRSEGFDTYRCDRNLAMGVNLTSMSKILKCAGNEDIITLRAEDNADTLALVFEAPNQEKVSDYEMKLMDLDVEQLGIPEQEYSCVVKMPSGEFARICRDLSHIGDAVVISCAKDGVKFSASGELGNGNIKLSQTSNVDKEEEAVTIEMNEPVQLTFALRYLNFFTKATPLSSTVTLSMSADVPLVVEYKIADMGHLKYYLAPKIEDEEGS

p21 peptide: peptide derived from the p21waf protein (carboxyl region of p21waf1), positive control (GRKRRQTSMTDRYHSKRRLIFS) [reference compound]
cell kill (U937 leukemia cells; U937 leukemia cells, absence of doxorubicin, incubation 4 or 24 hours): > 60%
cytotoxic response (cell killing) (breast cancer cells): induced cell killing

LGIPEQEYRYIRS [caPCNA-derived peptide (LGIPEQEY)(RYIRS)]
augmentation of cytotoxic effects of chemotherapeutic agents (cancer cells): augments the cytotoxic effects

H-Gly-Arg-Lys-Arg-Arg-Gln-Thr-Ser-Met-Thr-Asp-Arg-Tyr-His-Ser-Lys-Arg-Arg-Leu-Ile-Phe-Ser-OH (H-GRKRRQTSMTDRYHSKRRLIFS-OH) [p21cip/waf1 peptide (SEQ ID NO: 29)]
competition with caPCNA for binding to the caPCNA antibody [1]: no effect

COc1cccc2c1C(=O)c1c(O)c3c(c(O)c1C2=O)C[C@@](O)(C(=O)CO)C[C@@H]3O[C@H]1C[C@H](N)[C@H](O)[C@H](C)O1 [doxorubicin]
cell killing (breast cancer cells; breast cancer cells, low doses of doxorubicin alone): significant level of cell killing

XPG-GST fusion protein: 29 amino acid fragment of the XPG protein coupled to Glutathione-S-transferase, expressed in bacteria (LKQLDAQQTQLRIDSFFRLAQQEKEDAKR; also: fused to glutathione-S-transferase)
selective binding/precipitation of caPCNA versus nmPCNA (caPCNA): recognize and precipitate caPCNA selectively

LGIPEQEY [caPCNA peptide (126-133), LGIPEQEY]
intrinsic cytotoxicity (U937 leukemia cells; U937 cells, peptide as single agent, liposome encapsulated, 10 μM): intrinsic cytotoxicity
increase of the cytotoxicity of doxorubicin (U937 leukemia cells; U937 cells, peptide plus a range of concentrations of doxorubicin): approximately 3 fold
cytotoxic response (cell killing) (breast cancer cells; breast cancer cells, peptide alone in liposomes, 24 hours): strong cytotoxic response

H-Ser-Ala-Cys-Glu-Gln-IIe-Leu-Lys-Asp-Thr-OH (H-SACEQILKDT-OH) [MAL4]
competition with caPCNA for binding to the caPCNA antibody [1]: does not compete

H-Gln-Thr-Gln-Leu-Arg-Ile-Asp-Ser-Phe-Phe-Arg-OH (H-QTQLRIDSFFR-OH) [XPG peptide]
competition with caPCNA for binding to the caPCNA antibody [1]: effectively competed
